Data as given in paper PMC12837517, “Valorization of Onion-Processing Waste: Digestive Fate, Bioavailability, and Cellular Antioxidant Properties of Red and Yellow Peels Polyphenols” (Antioxidants, 2025).
Like-named read-outs stand apart in the source and are kept apart here. Marks after values point to notes of the source that are not given here. Each block holds one compound with its values, some of them ahead of it.

Experiments:
[1] = tested on: Caco-2 cells; experiment: Polyphenol accumulation within Caco-2 cells (uptake); assay type: in vitro ADME, human
Procedure: (§1) To determine how effectively specific polyphenols might be absorbed through the human intestine, an in vitro assay was conducted utilizing the Caco-2 cell line, which, when fully differentiated, mimics the human intestinal barrier, as described by D’Antuono et al. [16]. […] The cells were maintained for 21 days in a standard culture condition to ensure complete differentiation into a tight monolayer. The medium in both the apical and basolateral compartments was refreshed twice weekly.
(§2) The development of a robust epithelial barrier was confirmed by measuring the Transepithelial Electrical Resistance (TEER) using a volt–ohm meter. […] Prior to the experiment, the monolayers were rinsed with a pH 5.5 PBS. The apical chamber then received 2 mL of phenol red-free DMEM containing hydroalcoholic extracts from red and yellow onion peels, adjusted to a final total polyphenol concentration of 60 μg/mL and 30 μg/mL, respectively. The system was incubated at 37 °C, and samples from both the apical and basolateral chambers were collected for 30, 60, 90, and 120 min to track the time-dependent flux of the compounds. These samples were flash-frozen at −80 °C pending High-Performance Liquid Chromatography (HPLC) analysis.
(§3) For the assessment of polyphenol accumulation within the Caco-2 cells, the monolayers were first subjected to a sequential wash with PBS pH 5.5, and then with a solution of 0.1% fatty acid-free bovine albumin in PBS pH 5.5. The cells were then mechanically harvested into 1 mL of cold PBS pH 5.5 and stored at −80 °C under a nitrogen atmosphere. […] Polyphenols were chemically isolated from the sonicated Caco-2 cells and the basolateral solutions via a liquid–liquid extraction technique, employing ethyl acetate EtOAc stabilized with 0.01% butylated hydroxytoluene (BHT). This extraction was repeated three times, and the pooled organic layers were dried under vacuum before being dissolved in 200 μL mobile phase for HPLC analysis.

[2] = Two-step in vitro gastrointestinal digestion, digestive stability of polyphenols; assay type: in vitro ADME; conditions: for Digestive Stability (%) Gastric %: after gastric phase (pepsin, pH 2.5, 37 °C, 1 h); for Digestive Stability (%) Intestinal %: after small intestinal phase (pH 6.5, 37 °C, 2 h)
Procedure: The digestive stability of polyphenols was assessed using a two-step in vitro gastrointestinal digestion model, as described by Cardinali et al.. Aliquots (3 mL) of aqueous onion peel extracts (500 μg/mL total polyphenols, determined by HPLC-DAD) were diluted with 4.5 mL of 0.9% NaCl at pH 7. The gastric phase was initiated with addition of 0.9 mL of porcine pepsin solution (40 mg/mL) in 0.1 N HCl and adjustment of pH to 2.5 ± 0.1 with 1 N HCl. Samples were incubated at 37 °C for 1 h. Following gastric digestion, the small intestinal phase was initiated by adjusting the pH of gastric digesta to 5.3 with 100 mM NaHCO3 and 1 N NaOH, followed by the addition of 2.7 mL of small intestinal enzyme solution (lipase 2 mg/mL, pancreatin 4 mg/mL, and bile 24 mg/mL in 100 mM NaHCO3). The final sample pH was adjusted to 6.5 ± 0.1 with 1 N NaOH, the volume was standardized to 15 mL with saline solution (0.9% NaCl), and the sample was incubated at 37 °C for 2 h. After both digestion steps (gastric and small intestinal), the samples were collected and centrifuged (10,000× g, 1 h, 4 °C), filtered (0.45 μm), and then analyzed by HPLC-DAD. Digestive stability (%) was calculated by comparing pre- and post-digestion polyphenol content.

[3] = Transport of polyphenols across differentiated Caco-2 monolayers (apical stability, basolateral bioavailability, Papp); conditions: human, Caco-2
Procedure: as §1, §2, §3

[4] = tested on: Caco-2 cell monolayer
Procedure: as §1, §2, §3

[5] = tested on: Caco-2 cell monolayer; experiment: Transport of polyphenols across differentiated Caco-2 monolayers (apical stability, basolateral bioavailability, Papp)
Procedure: as §1, §2, §3

[6] = design: method as in PMID 34388527; conditions: at room temperature; cited from earlier work
[7] = red onion peels “Rossa di Tropea” extract
[8] = yellow onion peels “Recas” extract
[9] = yellow onion peels extract, 30 min (maximum)
[10] = yellow onion peels “Recas” extract, listed as quercetin aglycone
[11] = yellow onion peels extract, 30-120 min

Structure (SMILES): COc1cc(-c2oc3cc(O)cc(O)c3c(=O)c2O)ccc1O [isorhamnetin]
cellular accumulation ([1]; red onion peels extract, 120 min): 0.040 ng/µg protein

Structure (SMILES): O=c1c(O)c(-c2ccc(O[C@@H]3O[C@H](CO)[C@@H](O)[C@H](O)[C@H]3O)c(O)c2)oc2cc(O)cc(O)c12 [Spiraeoside, quercetin-4′-O-glucoside]
Digestive Stability (%) Gastric % [2, 7]: 99.51 ± 3.50 ^a % | Digestive Stability (%) Intestinal % [2, 7]: 39.97 ± 6.96 ^b % | Digestive Stability (%) Gastric % [2, 8]: 81.11 ± 6.54 ^a % | Digestive Stability (%) Intestinal % [2, 8]: 36.76 ± 3.49 ^b % | cellular accumulation ([1]; red onion peels extract, 90 min (maximum)): 0.142 ng/µg protein | cellular accumulation [1, 9]: 0.162 ng/µg protein | Papp A→B at 120 min, 30 µg/mL total polyphenols [3]: 5.5 ×10⁻⁶ cm/s | bioavailability at 90 min, 30 µg/mL total polyphenols [3]: ~8% | bioavailability at 120 min, 30 µg/mL total polyphenols [3]: ~8% | recovery at 30 min, 60 μg/mL total polyphenols [3]: 78% | recovery at 120 min, 60 μg/mL total polyphenols [3]: 62%

Structure (SMILES): O=c1c(O[C@@H]2O[C@H](CO)[C@@H](O)[C@H](O)[C@H]2O)c(-c2ccc(O[C@@H]3O[C@H](CO)[C@@H](O)[C@H](O)[C@H]3O)c(O)c2)oc2cc(O)cc(O)c12 [Quercetin 3,4′-diglucoside]
Papp (apical-to-basolateral) [4]: 6.1 ×10⁻⁶ cm/s

Structure (SMILES): OC[C@H]1O[C@@H](Oc2cc3c(O)cc(O)cc3[o+]c2-c2ccc(O)c(O)c2)[C@H](O)[C@@H](O)[C@@H]1O [Cyanidin 3-glucoside]
Papp (apical-to-basolateral) ([5]; red onion peels extract): 5.1 ×10⁻⁶ cm/s | detection in basolateral compartment ([5]; red onion peels extract, 30-120 min): present in the basolateral side at 60 and 120 min

Structure (SMILES): O=C1c2c(O)cc(O)cc2OC(c2ccc(O)c(O)c2)C1O (stereo not shown) [taxifolin]
solubility [6]: 0.1%

The remaining lines, values ahead:

Papp (apical-to-basolateral) [4]: 5.9 ×10⁻⁶ cm/s
Structure (SMILES): O=c1c(O)c(-c2ccc(O[C@@H]3O[C@H](CO)[C@@H](O)[C@H](O)[C@H]3O)c(O)c2)oc2cc(O[C@@H]3O[C@H](CO)[C@@H](O)[C@H](O)[C@H]3O)cc(O)c12 [Quercetin 7,4′-diglucoside]

Digestive Stability (%) Gastric % [2, 7]: 32.34 ± 3.97 ^a % | Digestive Stability (%) Intestinal % [2, 7]: 15.37 ± 2.55 ^b % | Digestive Stability (%) Gastric % [2, 8]: 3.44 ± 0.56 ^b % | Digestive Stability (%) Gastric % [2, 10]: 3.44% | Digestive Stability (%) Intestinal % [2, 8]: 15.64 ± 0.96 ^a % | Digestive Stability (%) Intestinal % [2, 10]: 15.64% | maximum cellular accumulation ([1]; red onion peels extract, time not stated): 1.468 ng/µg protein | Papp A→B at 120 min, 60 µg/mL total polyphenols [3]: 1.1 ×10⁻⁶ cm/s | bioavailability at 60 min, 60 µg/mL total polyphenols [3]: 0.6% | recovery at 30 min, 60 μg/mL total polyphenols [3]: 38% | recovery at 120 min, 60 μg/mL total polyphenols [3]: 7% | detection in basolateral compartment [5, 11]: not detected
Structure (SMILES): O=c1c(O)c(-c2ccc(O)c(O)c2)oc2cc(O)cc(O)c12 [Quercetin]

recovery ([2]; in both onion varieties, phase not specified, read-out: recovery after digestion): > 100% | Digestive Stability (%) Gastric % [2, 7]: >100.00% | Digestive Stability (%) Intestinal % [2, 7]: >100.00% | Digestive Stability (%) Gastric % [2, 8]: 90.32 ± 4.41 ^b % | Digestive Stability (%) Intestinal % [2, 8]: >100.00 ^a % | cellular accumulation ([1]; red onion peels extract, 30 min): 0.013 ng/µg protein | cellular accumulation [1, 9]: 0.050 ng/µg protein | Papp A→B at 120 min, 30 µg/mL total polyphenols [3]: 8.4 ×10⁻⁶ cm/s | bioavailability at 90 min, 30 µg/mL total polyphenols [3]: 6.8% | bioavailability at 120 min, 30 µg/mL total polyphenols [3]: 7.7% | stability in apical culture medium over time [5, 11]: consistent stability
Structure (SMILES): O=C(O)c1ccc(O)c(O)c1 [Protocatechuic acid]
